Test results published in patent US12559574B2 (National Health Research Institutes, priority 2019, dated 2026).
Like-named read-outs stand apart in the source and are kept apart here.

Assays:
A549 = test: transwell migration and Matrigel invasion, A549; type: cell-based, human; conditions: 24 h; for succinate-induced A549 migration: succinate with test agent
Method: (§1) Transwell migration and invasion assays are performed. Relative ability of migration or invasion is calculated from 3 fields under a light microscope. […] Migration assays and Matrigel invasion assay are then performed with PDGF-BB as a chemoattractant and migrated cell counts expressed as fold of basal controls.
(§2) The cells are lysed, and the cell lysates are immunoblotted with antibodies specific for E-cadherin, N-cadherin, vimentin, or β-actin.
(§3) LLC and A549 lung cancer cells are treated with different concentrations of HIF-1α specific inhibitors, and cell migration is assessed in a transwell assay. […] Prolyl hydroxylase (PHD) controls HIF-1α protein stability by hydroxylation of two conserved proline residues in HIF-1α thereby accelerating its degradation. […] Cell lysates are immunoblotted with antibodies specific for E-cadherin, Vimentin, or […]-actin.

LLC cells = test: transwell migration and Matrigel invasion, LLC; type: cell-based, murine; conditions: 24 h; for succinate-induced LLC migration: succinate with test agent
Method: as §1, §3

A549 cells = test: EMT marker immunoblot in A549 cells; type: cell-based, human
Method: as §2, §3

HIF-1α [1] = test: kinase phosphorylation and HIF-1α expression in A549 cells; type: cell-based, human; conditions: for HIF-1α expression: A549/shNC cells, succinate 1 mM or DMS 20 mM, 12 h, qPCR
Method: MAPK-, phosphatidylinositol 3-kinase (PI3K)-AKT-mTOR-, and AMP-activated protein kinase (AMPK)-mediated hypoxia-inducible factor-1α (HIF-1α) upregulation plays critical roles in macrophage activation and cancer progression. Therefore, it is investigated that whether these signaling molecules mediate the succinate actions. […] Using selective kinase inhibitors, LLC cells are treated with different concentrations of LY294002 or SB202190 for 12 h, and Hif-1α mRNA is measured. […] To understand the role of SUCNR1 in driving HIF-1α expression, the expression level of HIF-1α in A549/shSUCNR1 is determined.

LLC [2] = system: LLC
Excerpt: The subcutaneous primary tumors are surgically removed after 3 weeks and mice are kept for another 2 weeks at which time animals are sacrificed.

MCF-7 = conditions: MCF-7, different concentrations of succinate, 24 h
Method: as §1

PC3 = test: transwell migration and Matrigel invasion, PC3; type: cell-based, human; conditions: PC3, different concentrations of succinate, 24 h
Method: (§4) Transwell migration and invasion assays are performed.
(§5) Succinate-induced migration of LLC, A549, PC3 and HT-29 cells is blocked by anti-SUCNR1 antibody but not control IgG antibody (FIG. 23A).

SUCNR1 [3] = conditions: A549, succinate 1 mM
HT-29 = test: transwell migration and Matrigel invasion, HT-29; type: cell-based, human; conditions: HT-29, different concentrations of succinate, 24 h
Method: as §4, §5

HIF-1α [4] = test: kinase phosphorylation and HIF-1α expression in LLC cells; type: cell-based, murine; conditions: succinate 1 mM
peritoneal macrophages [5] = test: peritoneal macrophage transwell migration (A549-CM, succinate, anti-SUCNR1); type: cell-based, mouse; conditions: succinate vs control
Method: The peritoneal macrophages are seeded on the upper chamber of transwell plates and cultured with control medium (DMEM) or CM from A549 (A549-CM) for 24 h. […] As shown in FIGS. 18A and 18B, A549-CM and A549-SCM increase macrophage migration compared with the control medium, which is abrogated by anti-SUCNR1 antibody but not control IgG.

SUCNR1 [6] = conditions: succinate 1 mM, 2 h
[7] = system: mouse peritoneal macrophages
Method: (§6) On day 21, primary subcutaneous tumors are harvested, and percentage of TAMs is analyzed.

LLC [8] = conditions: succinate 20 and 100 mg/kg i.p. twice a week for 3 weeks vs saline
Method: as §6

peritoneal macrophages [9] = test: succinate-induced peritoneal macrophage migration with anti-succinate antibodies, transwell; type: cell-based, mouse; conditions: succinate 1 mM, 24 h
Method: (§7) VCAM1^+CD11c^+CD11b^low-TAM population is quantified by flow cytometry and normalized to the cell number of control medium treatment. […] The LLC cells are subcutaneously injected into C57BL/6J mice. The mice with an average 50 mm^3 subcutaneous tumors (8 day after LLC tumor inoculation) receive intraperitoneal injections of 6G10F6 monoclonal antibody (1 and 5 mg/kg) or IgG control antibody (5 mg/kg), twice a week for 5 weeks. The subcutaneous tumors are surgically removed 3 weeks after LLC injection for the assessment of TAM polarization; the lung, liver, spleen, and adrenal gland are excised from mice 2 weeks after removal of the primary tumor for the determination of tumor metastasis.

LLC [10] = test: syngeneic murine LLC tumor model treated with 6G10F6 monoclonal antibody
Method: as §7

PMϕs = test: VCAM1+CD11c+CD11b low-TAM population in succinate-stimulated PMϕs, flow cytometry; type: cell-based, mouse; conditions: pre-treated 1 h, succinate 1 mM 3 days
Method: as §7

[11] = succinate 20 and 100 mg/kg i.p. twice a week vs saline

## COc1cc2c(cc1O)CC[C@@H]1[C@@H]2CC[C@]2(C)[C@@H](O)CC[C@@H]12 [2-MeOE2]
A549
  succinate-induced A549 migration: inhibit succinate-mediated migration of LLC and A549 in a dose-dependent manner
LLC cells
  succinate-induced LLC migration: inhibit succinate-mediated migration of LLC and A549 in a dose-dependent manner

## Cc1cc(-c2nc(-c3ccc(OC(F)(F)F)cc3)no2)nn1Cc1ccnc(N2CCN(C3CC3)CC2)c1 [Bay 87-2243]
A549
  succinate-induced A549 migration: inhibit succinate-mediated migration of LLC and A549 in a dose-dependent manner
A549 cells; pretreated 1 h, succinate 1 mM 24 h
  succinate-mediated vimentin augmentation and E-cadherin reduction: suppresses
LLC cells
  succinate-induced LLC migration: inhibit succinate-mediated migration of LLC and A549 in a dose-dependent manner

## COC(=O)CNC(=O)C(=O)OC [DMOG, dimethyloxalyl glycine]
A549
  succinate-induced A549 migration: increases

## COC(=O)CCC(=O)OC [DMS, dimethyl-ester succinate, reference compound]
HIF-1α [1]
  HIF-1α expression: results in elevation of HIF-1α

## CN(C)C(=N)N=C(N)N [metformin]
A549
  succinate-induced A549 migration: abolish

## O=C(O)CCC(=O)O [succinate]
LLC [2]; [11]
  metastatic cancer nodules in liver and spleen: similarly higher
  metastatic cancer nodules in lungs: higher in mice receiving succinate (in a dose-dependent manner) than in mice receiving saline
LLC [2]; succinate-treated vs saline, p=0.088
  incidence of adrenal metastasis: higher in succinate-treated animal, but the difference does not reach statistical significance
A549; A549, different concentrations of succinate
  cell migration and invasion: promotes cell migration and invasion
HIF-1α [1]; A549, succinate 1 mM
  HIF-1α protein and mRNA expression: increases HIF-1α protein
  phosphorylation of p38 MAPK, AKT, and AMPK: induces phosphorylation of p38 MAPK, AKT, and AMPK in a time-dependent manner
HIF-1α [1]
  HIF-1α expression: Up-regulation of HIF-1α is observed
MCF-7
  cell migration and invasion: promotes cell migration and invasion
PC3
  cell migration and invasion: promotes cell migration and invasion
SUCNR1 [3]
  phosphorylated ERK1/2: rapid rise of phosphorylated ERK1/2 at 2 min
SUCNR1 [3]; 2 h
  intracellular Ca2+: increased
HT-29
  cell migration and invasion: promotes cell migration and invasion
HIF-1α [4]
  HIF-1α protein and mRNA expression: increases HIF-1α protein
  phosphorylation of p38 MAPK, AKT, and AMPK: induces phosphorylation of p38 MAPK, AKT, and AMPK in a time-dependent manner
Peritoneal macrophages [5]
  macrophage migration: dramatically increase macrophage migration
A549 cells; succinate 0.5, 1, 2.5 mM 24 h, 1 mM time course
  E-cadherin, N-cadherin and vimentin levels: suppresses E-cadherin and increased N-cadherin and vimentin in a concentration and time-dependent manner
SUCNR1 [6]; LLC stably transfected with control shRNA
  PGE2 released into the medium: increased
SUCNR1 [6]; LLC
  intracellular Ca2+: increased
[7]; different concentrations of succinate, 24 h
  ARG1 protein expression: increases the expression of ARG1 protein in mouse peritoneal macrophages in a concentration-dependent manner
[7]; qPCR, 24 h
  TAM marker gene expression (Arg1, Fizz1, Mgl1, Mgl2 mRNA): raises the expression of TAM marker gene
[7]; succinate 1 mM, 3 days, flow cytometry
  TAM surface markers CD11c and VCAM1: up-regulates TAM surface markers
LLC [8]
  VCAM1+CD11c+CD11b low-TAMs in primary subcutaneous tumors: significantly higher number
LLC cells; LLC, different concentrations of succinate
  cell migration and invasion: promotes cell migration and invasion

## O=C(O)CCC(=O)C(=O)O [α-KG, α-ketoglutarate]
A549
  succinate-induced A549 migration: reduces

B1: 6G10F6: mouse monoclonal anti-succinate antibody, heavy chain SEQ ID NO: 2, light chain SEQ ID NO: 4 (antibody, V domains shown)
VH: MRVLILLWLFTAFPGILSDVQLQESGPGLVKPSQSLSLTCTVTGYSITSDYAWNWFRQFPGNKLEWMGYTSYSGSTSYNPSLKSRISITRNTSKNQIFLQLNSVTPEDTATYYCAREVTTFGYFDYWGQGTTLTVSS
VL: MAWTSLILSLLALCSGASSQAVVTQESALTTSPGGTVILTCRSSTGAVTTSNYANWVQEKPDHLFTGLIGGTSNRAPGVPVRFSGSLIGDKAALTITGAQTEDDAMYFCALWYSTHYVLGGGTKVTVL
modifications: Heavy chain of 6G10F6 Antibody; Light chain of 6G10F6 antibody
Peritoneal macrophages [9]
  succinate-induced macrophage migration: suppresses
LLC [10]; 1 and 5 mg/kg i.p.
  survival of LLC tumor-bearing mice: significantly prolongs the survival
LLC [10]; 1 and 5 mg/kg i.p. twice a week for 5 weeks, vs saline
  lung tumor multiplicities: significantly suppresses
LLC [10]; 1 and 5 mg/kg i.p. twice a week, vs saline
  TAM population in subcutaneous tumors: significantly suppresses
PMϕs
  succinate up-regulated TAM surface markers CD11c and VCAM1: suppresses
